Reference: US12268727B2, “Bioactive polypeptides for improvements in plant protection, growth and productivity” (priority 2017, dated 2025)
Non-standard residues stand in square brackets, D forms with d. No end group written: not given here. sY = N[C@@H](Cc1ccc(OS(=O)(=O)O)cc1)C(=O)O

Key:
[1] = system: reactive oxygen species (ROS) production in corn tissue; assay: ROS activity assay in corn tissue (luminol/horseradish peroxidase, RLU); conditions: Table 33; 5 nM polypeptide; RLU relative to native Bt.4Q7Flg22 = 100
[2] = system: reactive oxygen species (ROS) production in Kiwi 'Hayward' leaf petioles; assay: ROS activity assay in kiwi leaf petioles; assay type: cell-based, Actinidiae deliciosa; conditions: 100 nM peptide
Description: To test the sensitivity of kiwi leaves to 22-amino acid fragments of flagellin, 1 mm slices were cut through Actinidiae deliciosa Kiwi ‘Hayward’ leaf petioles and floated in 150 μL of water in a 96-well plate, with one slice per well. […] In two independent experiments, a total of 6 kiwi leaf petiole samples were treated with each Flg22 polypeptide in Table 94. The average total RLU and standard error of the means (SEM) was calculated for each treatment. A two-tailed T-test was used to determine significance at the 90% confidence level (P<0.1) between treatments. Relative ROS production was determined for each polypeptide in comparison to total RLUs for the 100 nM Bt.4Q7Flg22 control.

[3] = system: reactive oxygen species (ROS) production in soybean leaf tissue; assay: ROS activity assay in soybean leaf tissue (luminol/horseradish peroxidase, RLU); assay type: cell-based; conditions: Table 33; 100 nM polypeptide; RLU relative to native Bt.4Q7Flg22 = 100
[4] = system: Pseudomonas syringae pv. actinidiae (PSA-V); assay: PSA-V leaf spot in potted kiwi plants; assay type: in vivo
[5] = system: corn; assay type: in vivo
[6] = system: soybean; assay: Foliar application to soybean in growth room, plant height (non-stress, heat and water deficit stress); assay type: in vivo
Description: Ec.Flg22 (SEQ ID NO: 527) was applied to soybean (Beck's 297NR).
Plant height (cm) was measured just prior to the foliar application delivered at 3 weeks and then again 2 weeks later when the plants were 5-weeks-old. Two replicate trials were conducted using 18 plants per trial.
Soybean plants were grown as described in Example 6. The At.PSKα polypeptide (SEQ ID NO: 598) was applied as a foliar spray to the plants at the V1-V4 stage. Soybean plants treated with foliar applications of At.PSKα and control plants treated with water and surfactant alone were then grown in conditions described in Examples 7-9 that produced a non-stress and stress (heat and water deficit) environments. Table 37 describes the percentage change or increase in height reported for soybean plants treated with At.PSKα as a foliar spray at the V1-V4 growth stage.
RHPP bioactive priming polypeptide (SEQ ID NO: 600) was also applied as foliar treatment to R1 stage hybrid soybean (Beck's 297R4) with 0.1% (v/v) non-ionic surfactant ([…] SURFACE) using a spray bottle delivering approximately 1.2 ml/plant. This experiment was performed to look at the effects of RHPP on plant growth and was conducted using a total of 18 plants per treatment group. […] R1 stage soybean plants were treated with nothing (non-treated control), […] SURFACE surfactant applied at a concentration of 0.1% (v/v) or the RHPP polypeptide (300 nM) applied in combination with […] SURFACE surfactant (0.1% v/v). Height for each plant was recorded at the time of spray and again at 16 days post foliar application and average growth parameters were compared between foliar treatments (Table 39).

[7] = system: corn; assay: Foliar application to corn in growth room, plant height (non-stress, heat and water deficit stress)
[8] = system: soybean; assay: Foliar application to soybean, field yield trials; assay type: in vivo; conditions: for Average Bu/Ac Increase compared to Control Variety 1 and 2 / Average Total Yield Bu/Ac Variety 1 and 2 / Average Total Yield Bu/Ac Variety 2: foliar at R2, 7 US Midwest locations; for Average Total Yield Bu/Ac Variety 2: AG3536
[9] = system: Candidatus Liberibacter asiaticus; conditions: in vivo
[10] = system: soybean; assay: Foliar application to soybean, field yield trials; assay type: in vivo; conditions: foliar at R2, AG2836, 7 US Midwest locations
[11] = system: Agrobacterium tumefaciens strain GV3101; assay: Growth of Agrobacterium tumefaciens culture (OD 600); assay type: cell-based; conditions: 10.0%, 2.0%, 0.40%, 0.08%, 0.02%
Description: Agrobacterium tumefaciens strain GV3101 was inoculated into Luria broth medium (LB) and grown for 20 hours. Initially the optical density (OD) of the culture was measured at a wavelength of 600 nm using a spectrophotometer and normalized to a low starting density. The cultures were then divided equally and treated with similar proportions of thionins that are representative of mixtures used to treat citrus trees. The ratios of Cs.thionin (SEQ ID NO: 651), As.thionin (SEQ ID NO: 652) and Mt.thionin (SEQ ID NO: 653) used were 10.0%, 2.0%, 0.40%, 0.08%, and 0.02% and were prepared to match the 20 mL total volume of filtrate of each of the thionin mixtures that is used as a treatment per tree. Each thionin mixture was also compared to control mixtures containing only: filtrate, minimal media (LB), or a tetracycline (Tet) antibiotic (10 μg/mL per culture). Each bar represents a combined OD measure of 3 replicates. After incubation with the thionin and antibiotic mixtures, the optical density (OD 600) was measured again to determine if growth of the Agrobacterium cultures was reduced or inhibited.

With “TRLSSGLKINSAKDDAAGLQIA (listed as Pseudomonas syringae) [Flg22-PSA, Flg22 from Pseudomonas syringae pv. actinidiae]” the “Avg. Activity (%) Corn (5828 YX) 5 nM polypeptide” value [1] was 154.4%, the “Average Total Relative Light Units (RLUs); SEM in parentheses” value ([2]; Kiwi 'Hayward' leaf petiole slices, 40 minutes time course) was 124,550 RLU and the “ROS production relative to Bt4Q7Flg22 (%)” value ([2]; Kiwi 'Hayward' leaf petioles) was 262%. The “Avg. Activity (%) Soybean (297 R4) 100 nM polypeptide” value [3] was 113.1%, the “PSA-V leaf spot symptoms vs untreated control” value ([4]; 6, 16 and 23 DAI) was “significantly reduced PSA-V leaf spot symptoms” and the “less leaf spot compared to untreated control” value ([4]; combination with Flg22-PSA pre-treatment (partner not given), 29 DAI) was 14.3%.

For “Tyr(SO3H)-I-Tyr(SO3H)-TQ ([sY]I[sY]TQ; listed as Arabidopsis thaliana) [At.PSKα, Phytosulfokine alpha, Arabidopsis thaliana]”, the “Bu/Ac Foliar Corn (yield increase)” value ([5]; 1 μM foliar spray with surfactant at V5-V8, corn hybrid 5140RR, vs water control) was 3.0 Bu/Ac, the yield increase ([5]; foliar 1 μM, V5-V8, hybrid 5140RR, one location) was 3 Bu/Ac and the “increase in height vs control” value ([6]; foliar at V1-V4, non-stress environment) was 3.5%. The “increase in height vs control” value ([6]; foliar at V1-V4, stress (heat and water deficit) environment) was 4.3%, the “Percentage (%) change in Height in Stress Environment Soybean with At.PSKα over control” value ([6]; foliar spray at V1-V4, heat and water deficit stress) was 4.3% and the “Percentage (%) change in Height in Non-Stress Environment Soybean with At.PSKα over control” value ([6]; foliar spray at V1-V4, non-stress) was 3.5%. The “Plant Height Normalized as a percentage of control height Non-stress” value ([7]; 5 weeks, control surfactant 0.01% v/v, HpaG-like 1 μM, At.PSKα 100 nM) was 98.2%, the “Plant Height Normalized as a percentage of control height Stress” value ([7]; 5 weeks, heat and water deficit stress, control surfactant 0.01% v/v, HpaG-like 1 μM, At.PSKα 100 nM) was 107.8% and the “growth phenotype vs control” value ([7]; foliar (HpaG-like 1 μM, PSKα), heat and water deficit stress) was “improved growth phenotype”. For the same substance, the “Height (cm) after stress 5 weeks” value ([7]; heat and water deficit stress, HpaG-like 1 μM, At.PSKα 100 nM foliar) was 54.88 cm, the “Height (cm) after non-stress 5 weeks” value ([7]; non-stress growth room, HpaG-like 1 μM, At.PSKα 100 nM foliar) was 58.62 cm and the “Bu/Ac Foliar Soybean (yield increase)” value ([8]; 1 μM foliar spray with surfactant at V1-V4, soybean hybrid 375 NR, vs water control) was 0.8 Bu/Ac. It also gave a yield increase ([8]; foliar 1 μM, V1-V4, hybrid 375 NR, one location) of 0.8 Bu/Ac.

In the case of “thionin tagged: thionin polypeptide comprising a phloem localization sequence (printed SEQ ID NO: 650) (RTCESQSHRFKGPCSRDSNCATVCLTEGFSGGDCRGFRRRCRCTRPCVFDEK)”, the “Ct values vs control trees” value [9] is reported as “higher average Ct values” and the “average Ct value vs un-tagged thionin” value [9] is reported as “higher average Ct value at T56”.

In the case of Gm RHPP (GGIRAAPTGNER; Glycine max), the “Average Total Yield Bu/Ac Variety 1” value ([10]; use rate 4.0 Fl. oz/Ac) is reported as 58.61 Bu/Ac, the “Average Total Yield Bu/Ac Variety 1” value ([10]; use rate 8.0 Fl. oz/Ac) is reported as 59.47 Bu/Ac and the “Average Bu/Ac Increase compared to Control Variety 1 and 2” value ([8]; use rate 4.0 Fl. oz/Ac) is reported as “+1.26 Bu/Ac”. The “Average Total Yield Bu/Ac Variety 1 and 2” value ([8]; use rate 4.0 Fl. oz/Ac) was 61.83 Bu/Ac, the “Average Bu/Ac Increase compared to Control Variety 1 and 2” value ([8]; use rate 8.0 Fl. oz/Ac) was “+0.51 Bu/Ac” and the “Average Total Yield Bu/Ac Variety 1 and 2” value ([8]; use rate 8.0 Fl. oz/Ac) was 61.08 Bu/Ac. The “Average Total Yield Bu/Ac Variety 2” value ([8]; use rate 4.0 Fl. oz/Ac) was 66.35 Bu/Ac and the “Average Total Yield Bu/Ac Variety 2” value ([8]; use rate 8.0 Fl. oz/Ac) was 62.46 Bu/Ac.

With “Cs.thionin: thionin polypeptide, applied as filtrate (RVCQSQSHHFHGACFSHHNCAFVCRNEGFSGGKCRGVRRRCFCSKLC; applied as filtrate; listed as Citrus sinensis)” the “growth of Agrobacterium cultures vs filtrate, LB or Tet controls” value [11] was “dose dependent response and decreased growth”.

With “Mt.thionin: thionin polypeptide, applied as filtrate (RTCESQSHRFKGPCSRDSNCATVCLTEGFSGGDCRGFRRRCRCTRPCVFDEK; applied as filtrate)” the “growth of Agrobacterium cultures vs filtrate, LB or Tet controls” value [11] was “dose dependent response and decreased growth”.
